Data as given in ChEMBL document CHEMBL1159228, “The 1994 Japan-U.S. Seminar on Bioorganic Marine Chemistry, Meeting Report” (J Nat Prod, 1995).
Values after ≈ are worked out from the molar mass of the structure shown. Each block holds one compound with its values, some of them ahead of it.

Legend:
[1] = Inhibition of inosine-5'-monophosphate dehydrogenase
P388 [2] = experiment: Cytotoxicity against mouse P388 cells; type: functional, cell-based
M5076 = experiment: In vivo cytotoxicity against mouse M5076 cells relative to control; type: functional
B16 [3] = experiment: In vivo cytotoxicity against mouse B16 cells relative to control; type: functional
[4] = In vivo cytotoxicity against mouse LLC cells relative to control; type: functional, Lewis lung carcinoma
P388 [5] = experiment: In vivo cytotoxicity against mouse P388 cells relative to control; type: functional
L1210 = experiment: Cytotoxicity against mouse L1210 cells; type: functional, cell-based
[6] = Ichthyotoxicity against Carassius auratus; type: organism-based; settings: in vivo
Colon 26 = experiment: In vivo cytotoxicity against mouse Colon 26 cells at 80 ug/kg relative to control; type: functional
[7] = In vivo cytotoxicity against mouse LLC cells at 40 ug/kg relative to control; type: functional, Lewis lung carcinoma
[8] = In vivo cytotoxicity against mouse EAC cells at 40 ug/kg relative to control; type: functional, Ehrlich
P388 [9] = experiment: In vivo cytotoxicity against mouse P388 cells at 80 ug/kg relative to control; type: functional
B16 [10] = experiment: In vivo cytotoxicity against mouse B16 cells at 40 ug/kg relative to control; type: functional
[11] = Molluscicidal activity against common snail; type: organism-based; settings: cornu aspersum, in vivo; read-out: LD50 (the source's name)

IC50 [1]: 1000 µM
SMILES: O=C1NCCc2cc(Br)c(O)c(c2)Oc2ccc(cc2Br)[C@H](O)CNC(=O)/C(=N/O)Cc2cc(Br)c(O)c(c2)Oc2c(Br)cc(cc2Br)C/C1=N\O [BASTADIN 8]

SMILES: C[C@@H]1[C@@]2(CC[C@](C)(O)CO2)O[C@H]2C=C3[C@@H]4[C@@H](O)C[C@H]5Cc6nc7c(nc6C[C@]5(C)[C@H]4C[C@@H](O)[C@]3(C)[C@]21O)C[C@@H]1CC[C@@H]2[C@H](CC(=O)[C@]23C[C@@H]2O[C@@]4(CCC(C)(C)O4)[C@@H](C)[C@@H]2[C@]3(C)O)[C@@]1(C)C7 [RITTERAZINE A]
IC50 (P388 [2]): 0.018 ng/mL (≈ 0.0197 nM)

IC50 [1]: 1000 µM
SMILES: CC1=C(O)/C(=C/C(C)CCCC(C)/C=C/C=C(\C)CCCc2ccoc2)OC1=O (stereo unspecified) [FASCICULATIN]

SMILES: COc1c(C)cc2c(c1O)[C@@H]1[C@@H]3[C@H]4SCC(N)C(=O)OC[C@@H](c5c(O)c(OC)c(C)c(OC(C)=O)c54)N3[C@@H](O)[C@H](C2)N1C (stereo partly specified)
T/C (M5076): 210%
T/C (B16 [3]): 241%
T/C [4]: 0%
T/C (P388 [5]): 213%

SMILES: C/C=C\[C@H](C)[C@@H]1O[C@]1(C)[C@@H](O)[C@@H](C)C(=O)[C@@H](CO)[C@@H](O)CC(=O)CC
IC50 (L1210): 100 ng/mL (≈ 281 nM)

SMILES: COc1c(C)cc2c(c1O)[C@@H]1[C@@H]3[C@H]4SCC(=O)C(=O)OC[C@@H](c5c(O)c(OC)c(C)c(OC(C)=O)c54)N3[C@@H](O)[C@H](C2)N1C
T/C (M5076): 210%
T/C (B16 [3]): 241%
T/C [4]: 0%
T/C (P388 [5]): 213%

SMILES: C=C1C(O)CC(=O)C(C)/C=C(\C)C[C@@H](O)[C@]2(O)O[C@H](CC[C@H]2O)CC(O)CCC(O)C(CCCC)OC(=O)C(C)C(O)C2OC12 (stereo partly specified) [AMPHIDINOLIDE N]
IC50 (L1210): 0.05 ng/mL (≈ 0.0778 nM)

SMILES: C=C(CCNC(=O)CC/C=C/C[C@H](CCCCCCC)OC)[C@@]12O[C@@H]1CC=C(C)C2=O [MALYNGAMIDE H]
LC50 [6]: 25000 ng/mL (≈ 57900 nM)

SMILES: COc1cc2c(cc1O)CCN[C@]21CS[C@@H]2c3c(OC(C)=O)c(C)c4c(c3[C@H](COC1=O)N1[C@@H]2[C@H]2c3c(cc(C)c(OC)c3O)C[C@@H]([C@@H]1O)N2C)OCO4 [TRABECTEDIN]
T/C (M5076): 210%
T/C (B16 [3]): 241%
T/C [4]: 0%
T/C (P388 [5]): 213%

IC50 [1]: 1000 µM
SMILES: C#CC(O)/C=C/CCCCCCCCC/C=C\CCCCCCCCCCCC/C=C\CC#CC(=O)O (stereo unspecified)

SMILES: Oc1c(Oc2c(O)c(Br)c(Br)c(Br)c2Br)cc(Br)c(Br)c1Br
IC50 [1]: 1000 µM

SMILES: COCC(C(=O)O[C@@H]1C/C=C/C=C/C(=O)O[C@H]([C@@H](C)[C@@H](O)[C@@H](C)CC[C@@H](OC(=O)C(C)N(C)C)[C@H](C)[C@H](OC(C)=O)[C@H](C)/C=C/N(C)C=O)C/C=C/[C@H](OC)C[C@H](C)C/C=C(\C)[C@@H](OC)CC[C@@H](C)[C@@H](O)[C@@H]1C)N(C)C (stereo partly specified) [APLYRONINE A]
T/C (Colon 26): 255%
T/C [7]: 556%
T/C [8]: 398%
T/C (P388 [9]): 545%
T/C (B16 [10]): 201%

SMILES: CO/C(=C\C(=O)N(C)[C@@H](Cc1ccccc1)c1nccs1)C[C@H](C)C(Cl)(Cl)Cl [BARBARAMIDE A]
LC50 [11]: < 100000 ng/mL
